Experimental data reported in ChEMBL document CHEMBL1201862, “PubChem BioAssay data set” (2004).
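Dose response: 5 concentrations. Exposure: 48 h. Format: 96-well plates. Endpoint: linear interpolation; highest concentration if not reached. At the GI50, growth is halved.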 Active and inactive are the calls of the source. No stated cut-off is given here; in the data, active = GI50 up to about 1.1 µM and inactive = higher.

Columns and labels:
Test in all cases: NCI anticancer screen, dose series, 48 h
A549 = system: A549
EKVX = system: EKVX
HL-60 = system: HL-60
HT-29 = system: HT-29
K562 = system: K562
KM12 = system: KM12
MOLT-4 = system: MOLT-4
NCI-H23 = system: NCI-H23
NCI-H460 = system: NCI-H460
RPMI-8226 = system: RPMI-8226
SF-268 = system: SF-268
SF-295 = system: SF-295
SK-MEL-5 = system: SK-MEL-5
SK-OV-3 = system: SK-OV-3
SN12C = system: SN12C
SNB-19 = system: SNB-19
SNB-75 = system: SNB-75
SW-620 = system: SW-620
UACC-257 = system: UACC-257
UO-31 = system: UO-31

Measured: GI50

O=C1C(Cl)N(c2cccc(Cl)c2)C1c1c[nH]c2ccccc12 (stereo not given)
inactive: A549 > 100 µM | EKVX > 100 µM | HL-60 > 100 µM | HT-29 > 100 µM | K562 > 100 µM | KM12 > 100 µM | MOLT-4 > 100 µM | NCI-H23 > 100 µM | NCI-H460 > 100 µM | RPMI-8226 > 100 µM | SF-268 > 100 µM | SF-295 > 100 µM | SK-MEL-5 > 100 µM | SK-OV-3 > 100 µM | SN12C > 100 µM | SNB-19 > 100 µM | SNB-75 > 100 µM | SW-620 > 100 µM | UACC-257 > 100 µM | UO-31 > 100 µM

Cc1ccc(Nc2n[nH]c(NS(=O)(=O)c3cc(C(=O)Nc4ccc(Cl)cc4)c(Cl)cc3S)n2)cc1
inactive: A549 99.8 µM | EKVX 35 µM | HL-60 33.7 µM | HT-29 89.9 µM | K562 > 100 µM | KM12 > 100 µM | MOLT-4 > 100 µM | NCI-H23 > 100 µM | NCI-H460 36 µM | RPMI-8226 > 100 µM | SF-268 > 100 µM | SF-295 > 100 µM | SK-MEL-5 > 100 µM | SK-OV-3 > 100 µM | SN12C > 100 µM | SNB-19 > 100 µM | SNB-75 > 100 µM | SW-620 > 100 µM | UACC-257 > 100 µM | UO-31 > 100 µM

C[C@]12CCC(=O)C(O)=C1CC[C@@H]1[C@@H]2CC[C@]2(C)C(=O)CC[C@@H]12 [FORMESTANE]
inactive: A549 > 100 µM | EKVX > 88.9 µM | HL-60 > 80.9 µM | HT-29 > 92.7 µM | K562 > 89.9 µM | KM12 > 74.3 µM | MOLT-4 > 75.9 µM | NCI-H23 > 100 µM | NCI-H460 > 100 µM | RPMI-8226 > 100 µM | SF-268 > 100 µM | SF-295 > 100 µM | SK-MEL-5 > 93.5 µM | SK-OV-3 > 100 µM | SN12C > 100 µM | SNB-19 > 100 µM | SNB-75 > 100 µM | SW-620 > 100 µM | UACC-257 > 100 µM | UO-31 > 90.2 µM
